Experimental data as given in paper PMC8092876, “A Leucyl-tRNA Synthetase Inhibitor with Broad-Spectrum Antimycobacterial Activity” (Antimicrobial Agents and Chemotherapy, 2021).

Tested on: M. abscessus Bamboo
Type: cell-based
Conditions: M. abscessus versus M. tuberculosis

SMILES: CC(C)(O)COc1ccc(Br)c2c1B(O)O[C@@H]2CN [EC/11770]
- frequency of resistance lower than for other benzoxaboroles in M. tuberculosis: 100 fold
